The values below are quoted from earlier work in the CATMoS acute toxicity set (Mansouri et al. 2021).

Several values for one entry are separate records, joined by “and”; a condition that tells them apart may be missing. Equal values may be shown once.

The data set can be described thus: rat acute oral toxicity. Particulars: in vivo.
On to `Cc1cccc(C)c1NC(=O)CC12CCCN1CCC2`, for which the LD50 is 255 mg/kg. Turning to `NC(CO)C(=O)NNCc1ccc(O)c(O)c1O` (stereo unspecified), the LD50 is 5300 mg/kg. Regarding `CON=C(Cc1cccnc1)c1ccc(Cl)cc1Cl`, the LD50 is 1700 mg/kg.

Take `CCC(C)(O)C#CC(C)(O)CC` (stereo unspecified): the LD50 is 1400 mg/kg. `C1CCCCC1`: the LD50 is 12700 mg/kg.

Consider `N#Cc1ccc(Cl)c([N+](=O)[O-])c1`, for which the LD50 is 2050 mg/kg.

On to `CCCN(CCC)C(=O)SCc1ccccc1`, for which the LD50 is 1820 mg/kg. For the compound `Cc1ccc(S(=O)(=O)N(C)N=O)cc1`, the LD50 was 2700 mg/kg. Turning to `Cc1ccc2ncccc2c1`, the LD50 was 800 mg/kg. Regarding `OCCNC1CCCCC1`, the LD50 is 38300 mg/kg. Turning to `COc1cc(Br)c2oc(C3CCNCC3)cc2c1`, the LD50 is 310 mg/kg. Turning to `CCCCCCCCCCCCCCCC[N+](C)(C)CC`, the median lethal dose (LD50) was 500 mg/kg.

`CCN(CC)CCOC(=O)c1ccc(N)cc1`: the LD50 was 200 mg/kg. On to `Nc1nc2c(Cl)cccc2o1`, for which the LD50 is 500 mg/kg. On to `Cl/C(=N/Nc1c(Cl)cc(Cl)cc1Cl)c1ccccc1`, for which the LD50 is 718 mg/kg. For `COc1coc(CSP(=O)(OC)OC)cc1=O`, the LD50 was 23 mg/kg. As for `CCCCCCCCCCCCCCCCCCOC(=O)Cc1ccc(N(CCCl)CCCl)cc1`, the 50% lethal dose (LD50) is 200 mg/kg. As for `CC(C)(C)CC(C)(C)Nc1ncnc(N(CCCCCCNC2CC(C)(C)NC(C)(C)C2)C2CC(C)(C)NC(C)(C)C2)n1`, the LD50 is 9910 mg/kg. For the compound `NCC(O)c1cccc(O)c1` (stereo unspecified), the LD50 is 390 mg/kg.

For `CNC(=N)NC(=O)Nc1c(C)cccc1C`, the LD50 was 187 mg/kg and 184 mg/kg. As to `CC(=O)O[C@]1(C)CC[C@@]23C[C@@H]1C(C)(C)[C@@H]2CC[C@H]3C`, the 50% lethal dose (LD50) is 44800 mg/kg. On to `CCCCC(=O)CC`, for which the LD50 is 2760 mg/kg. `COC(C)(C)CCCC(C)C(C)O` (stereo unspecified): the LD50 was 4490 mg/kg. With `O=C(c1ccc2ccccc2n1)N1CCN=C1Nc1c(Cl)cccc1Cl`, the LD50 was 44 mg/kg. As for `CC1(C)C(=O)N(Cl)C(=O)N1Br`, the LD50 was 1390 mg/kg. Consider `CCOCC(C)O` (stereo unspecified), for which the LD50 is 4400 mg/kg. In the case of `NC(=S)NNCNNC(N)=S`, the LD50 is 6.35 mg/kg. On to `Cc1occc1C(=O)Nc1ccccc1`, for which the LD50 is 12900 mg/kg.

Consider `O=C1C(O)N=C(c2ccccc2F)c2cc(Cl)ccc2N1CCO` (stereo unspecified), for which the LD50 is 2550 mg/kg. For the compound `CCC(C(O)c1ccc2[nH]c(=O)ccc2c1)N1CCN(c2cccc(Cl)c2)CC1` (stereo unspecified), the LD50 was 500 mg/kg. As to `O=c1[nH]c2ccc(Cl)cc2o1`, the LD50 was 1200 mg/kg. As for `CC1CCC(=O)O1` (stereo unspecified), the LD50 was 8800 mg/kg. As for `C[C@@H]1CC[C@H]2[C@@H](C)C(=O)O[C@@H]3O[C@@]4(C)CC[C@@H]1[C@]32OO4`, the LD50 was 5580 mg/kg.

Regarding `CN1CCC2(C)CC(Cc3ccc(O)cc32)C1` (stereo unspecified), the LD50 is 320 mg/kg. On to `CN(C)C(=O)NC1CCCCCCC1`, for which the LD50 is 1500 mg/kg.

As for `C=COC(=O)CCCCC(=O)OC`, the LD50 was 6200 mg/kg.

Regarding `CCOC(=O)C1(c2ccccc2)CCN(CCC(C#N)(c2ccccc2)c2ccccc2)CC1`, the LD50 was 221 mg/kg. Consider `C[N+]1(C)CCC(OC(=O)C(O)(c2ccccc2)c2cccs2)C1` (stereo unspecified), for which the LD50 was 3580 mg/kg. For `ClCCOCCOCCCl`, the LD50 is 250 mg/kg. Take `c1cc2c(cc1C1CCCCC1)c1c3n2CCNC3CCC1` (stereo unspecified): the LD50 was 3070 mg/kg. On to `CCCCSP(=O)(N(C)C)N(C)C`, for which the LD50 is 208 mg/kg.

On to `OCCSSc1c(Cl)c(Cl)c(Cl)c(Cl)c1Cl`, for which the LD50 is 2860 mg/kg. Consider `Nc1nc(N)c2cc(N(Cc3ccc(Cl)c(Cl)c3)N=O)ccc2n1`, for which the LD50 is 317 mg/kg. Turning to `CC[N+](CC)(CC)CCC(O)(c1ccccc1)C1CCCCC1` (stereo unspecified), the LD50 was 1100 mg/kg. Turning to `CCOC(=O)C1=CN(C(C)=O)C2CCCC(C)N2C1=O` (stereo unspecified), the LD50 was 2500 mg/kg. For the compound `CSN(C)C(=O)Oc1cccc2c1OC(C)(C)C2`, the LD50 was 5 mg/kg. As for `CNC(=O)N(O)c1ccccc1`, the LD50 is 3400 mg/kg. For `Nc1nc(=S)ss1`, the LD50 was 3050 mg/kg. Take `CCOc1ccc(F)cc1C(CN(C)C)C(C)CC` (stereo unspecified): the LD50 was 324 mg/kg. As to `C[N+](C)(C)CCOP(=O)(O)OP(=O)(O)OC[C@H]1O[C@@H](n2ccc(N)nc2=O)[C@H](O)[C@@H]1O`, the LD50 is 18500 mg/kg. As to `CCOc1ccc(Cc2nc(C)cc3cc(OC)c(OC)cc23)cc1OC`, the LD50 is 1960 mg/kg and 2070 mg/kg. For the compound `[N-]=[N+]=NC1CCCCC1=NO` (stereo unspecified), the LD50 is 1120 mg/kg.

`FC(F)(F)c1nc2c(Cl)c(Br)c(Br)c(Br)c2[nH]1`: the LD50 is 5.25 mg/kg. For `CCCSP(=O)(OCC)Oc1cnn(-c2ccc(Cl)cc2)c1` (stereo unspecified), the LD50 was 237 mg/kg. `O=C1OCCC1N(C(=O)C1CC1)c1cccc(Cl)c1` (stereo unspecified): the LD50 was 174 mg/kg. For `C=CC(C)(O)CC` (stereo unspecified), the LD50 was 700 mg/kg. Regarding `CCN(CC)CCc1nc(-c2ccccc2)no1`, the LD50 was 1650 mg/kg. With `COP(=O)(Oc1ccc([N+](=O)[O-])c(C)c1)SC` (stereo unspecified), the LD50 was 315 mg/kg. Regarding `CN1CCC(CN2c3ccccc3Sc3ccccc32)C1` (stereo unspecified), the LD50 is 260 mg/kg and 162 mg/kg. Regarding `O=C1C=CC(=O)N1c1cccc(N2C(=O)C=CC2=O)c1`, the LD50 is 1370 mg/kg. For the compound `O=C(O)CCCCC(=O)O`, the LD50 is 7900 mg/kg and 10000 mg/kg.

A word on the LD50: it is the dose at which mortality reaches 50%.
